The subject of assay [1] is P. acnes (ATCC 6919). Nature of the assay: Antimicrobial susceptibility, broth dilution (MIC/MBC). It is filed as cell-based, Propionibacterium acnes. The procedure: (§1) The antibacterial effects of seven hops components against five different strains of bacteria involved in primary or secondary skin and soft tissue infections was evaluated, with broth dilution methods. […] Antimicrobial susceptibility testing was performed using a broth dilution method. Gentamicin or ampicillin was used as a control to verify the methodology. A stock solution (20 mg/ml) of the test substance (or vehicle control) was prepared in dimethyl sulfoxide. Serial dilution was done in microwell plates. Reinforced Clostridial Medium was used for P. acnes (ATCC 6919). Three hundreds […] of the test substance was added to the test tube containing P. acnes (10^5 CFU/ml) in 2.7 ml of cultures grown under anaerobic conditions. Mueller-Hinston Broth suitable for culturing S. epidermidis (ATCC 12228), K. rhizophila (formerly M. luteus) (ATCC 9341), and S. aureus (ATCC […]), and Brain Heart Infusion Broth suitable for culturing S. pyogenes (ATCC 14289) were used. A total of […] of the test substance was added to the test tube containing the other microorganisms (10^5CFU/ml) in 0.9 ml of cultures grown under controlled conditions. […] Samples from those tubes that scored positive was plated onto an agar plate and incubated under controlled conditions.

Assay [2] concerns S. aureus (ATCC 6538P). The assay is described as above. It is filed as cell-based, Staphylococcus aureus. As for the experimental part:
as §1

For assay [3], the system named is S. epidermidis (ATCC 12228). The description is as above. Type of assay: cell-based, Staphylococcus epidermidis. The procedure: as §1
The subject of assay [4] is K. rhizophila (formerly M. luteus) (ATCC 9341). Described as above. It is filed as cell-based, Kocuria rhizophila. As for the experimental part:
as §1

A short description of assay [5]: Hydrophilic oxygen radical absorbance capacity (ORAC-H). Particulars: water-soluble antioxidant capacity; expressed as mmol TE/g; — = No activity detected. From the text: (§2) Thus the ORAC method has become a widely used method for assessing antioxidant capacity in biological samples and foods. However, because of its inability to measure both hydrophilic and lipophilic antioxidants, the method has its limitations. An ORAC method for lipophilic antioxidants was further developed and validated using fluorescein as the fluorescent probe (Prior et al. 2003 J. Agric. Food Chem. 51: 3273-3279). […] In the present work, the ORAC value is expressed as the sum of values of both the water-soluble and fat-soluble parts. […] Both hydrophilic and lipophilic oxygen radical absorbance capacity (ORAC) assays were carried out at Brunswick Laboratory (Wareham, Mass.) based on the modified ORACfl method reported by Ou et al. (2001 J. Agric. Food Chem. 49: 4619-4626, 2002 J. Agr. Food Chem. 50: 3122-3128). Trolox, a water-soluble vitamin E analog, was used as the calibration standard. The data are expressed as mmole of Trolox equivalents per gram (mmol TE/g). […] Hydroxyl radical ORAC (HOR-AC) is expressed as mmole caffeic acid equivalent per gram (mmol CAE/g). […] The peroxyl nitrite ORAC (NORAC) result is expressed as mmol TE/g. […] Radical-scavenging activity was measured by the change in absorbance at 517 nm with the DPPH result expressed as mmol TE/g. […] The FRAP result is expressed as mmol TE/g (Ou et al. 2002b).

A short description of assay [6]: Lipophilic oxygen radical absorbance capacity (ORAC-L). The conditions noted are these: lipid soluble antioxidant capacity; expressed as mmol TE/g; — = No activity detected.
Source text: as §2

Assay [7] in a line: SOD antioxidant assay. The conditions noted are these: FIG. 2 radar chart. As for the experimental part:
(§3) [table] […] The SOAC scores are not included in this figure; ORAC values used are the sum of lipophilic and hydrophilic results. For each assay category, scaling was made logarithmic so that the plot on the chart resembles the associated rating. […] The larger the spatial area, the higher the overall antioxidative capacity. […] Both hydrophilic and lipophilic oxygen radical absorbance capacity (ORAC) assays were carried out at Brunswick Laboratory (Wareham, Mass.) based on the modified ORACfl method reported by Ou et al. (2001 J. Agric. Food Chem. 49: 4619-4626, 2002 J. Agr. Food Chem. 50: 3122-3128). Trolox, a water-soluble vitamin E analog, was used as the calibration standard. The data are expressed as mmole of Trolox equivalents per gram (mmol TE/g). The acceptable precision of the ORAC assay is a 15% relative standard deviation. […] Hydroxyl radical ORAC (HOR-AC) is expressed as mmole caffeic acid equivalent per gram (mmol CAE/g). […] The peroxyl nitrite ORAC (NORAC) result is expressed as mmol TE/g. Alpha-tocopherol (vitamin E) was used as the calibration standard, and the singlet oxygen absorbance capacity (SOAC) result is expressed as mmole a-tocopherol equivalent (mmol VtE) per gram (Aubry et al. 1989). […] Radical-scavenging activity was measured by the change in absorbance at 517 nm with the DPPH result expressed as mmol TE/g. […] The FRAP result is expressed as mmol TE/g (Ou et al. 2002b). […]

The nature of assay [8]: FRAP ferric reducing antioxidative power. The conditions noted are these: FIG. 2 radar chart. As for the experimental part:
as §3

Assay [9] in a line: HORAC hydroxyl radical ORAC. The conditions noted are these: FIG. 2 radar chart. The procedure:
as §3

≈ marks a conversion by molar mass, not a printed value. Where two headings read alike, the source gives them in different places.

The text below walks through data of US20110207697A1, “XANTHOHUMOL COMPOSITIONS AND METHODS FOR TREATING SKIN DISEASES OR DISORDERS” (Betal, LLC, priority 2008, published 2011).

As to `COc1cc(O)c(CC=C(C)C)c(O)c1C(=O)/C=C/c1ccc(O)cc1` [Xanthohumol (7), 3′-[3,3-dimethylallyl]-2′,4′,4-trihydroxy-6′-methoxychalcone], the MBC in assay [1] (Cutibacterium acnes, ATCC6919, read-out: MBC) is 3000 µg/mL (≈ 8460 µM); in [1] (lowest concentration required to kill) it was “[3] g/mL”; in [2], “[100] g/mL”; in assay [3], “[10] g/mL”; in assay [4], “[10] g/mL”. Further, the MIC in [1] (minimal 100% inhibitory concentration, 2 days) is 3 µg/mL (≈ 8.46 µM); in assay [2] (1 day) it was 1 µg/mL (≈ 2.82 µM); in [2] (Staphylococcus aureus, ATCC6538P), 1000 µg/mL (≈ 2820 µM); in [3] (1 day) it was 3 µg/mL (≈ 8.46 µM); in assay [3] (Staphylococcus epidermidis, ATCC12228), 1000 µg/mL (≈ 2820 µM); in [4] (1 day) it was 1 µg/mL (≈ 2.82 µM). In addition, in assay [4] (Kocuria rhizophila, ATCC9341), the minimal inhibitory concentration (MIC) was 1000 µg/mL (≈ 2820 µM). Moreover, in assay [5], the “ORAC-H (Trolox equivalent)” value is 2.1 Trolox equivalent. Also, in assay [6], the “ORAC-L (Trolox equivalent)” value came to 2.1 Trolox equivalent. The “quenching activity against superoxide (SOD), rank among hop components” value in [7] is listed as “highest quenching activity”. Also, in assay [8], the “quenching activity against ferric ion (FRAP), rank among hop components” value was “highest quenching activity”. The “quenching activity against hydroxyl radical (HORAC), rank among hop components” value in [9] is reported as “highest quenching activity”.
